The values below come from BindingDB's records for doi:10.1124/mol.58.6.1375 (University of Alabama At Birmingham, 2000).

Each structure is given as a SMILES string.

The assay concerns the target T1, Gamma-aminobutyric acid receptor subunit rho-3 (Homo sapiens, UniProt A8MPY1).
T1 sequence (A8MPY1 whole entry): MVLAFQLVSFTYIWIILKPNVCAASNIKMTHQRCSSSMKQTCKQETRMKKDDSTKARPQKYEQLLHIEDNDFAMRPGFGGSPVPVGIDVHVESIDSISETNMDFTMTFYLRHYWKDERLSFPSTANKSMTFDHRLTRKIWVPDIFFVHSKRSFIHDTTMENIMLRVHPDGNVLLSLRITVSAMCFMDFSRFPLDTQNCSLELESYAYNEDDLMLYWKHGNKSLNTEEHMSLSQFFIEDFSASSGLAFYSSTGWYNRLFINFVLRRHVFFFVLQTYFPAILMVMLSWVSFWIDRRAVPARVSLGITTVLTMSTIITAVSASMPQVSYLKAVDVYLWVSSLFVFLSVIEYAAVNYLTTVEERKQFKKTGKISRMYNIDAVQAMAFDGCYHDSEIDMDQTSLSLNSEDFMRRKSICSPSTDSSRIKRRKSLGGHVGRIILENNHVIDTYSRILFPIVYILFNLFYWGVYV

The term Ki denotes the equilibrium dissociation constant of an inhibitor or competing ligand from its target. Higher therefore signals a looser hold on the target. In turn, `O=C(O)Cc1c[nH]cn1` [1H-imidazol-4-ylacetic acid] returned a Ki of 150 nM.
The figure for `NCCCC(=O)O` [4-amino-n-[2,3-3H]butyric acid] is 580 nM; for `NCc1cc(=O)[nH]o1` it is 460 nM.
The figure for `O=C(O)C1=CCNCC1` [1,2,3,6-Tetrahydro-pyridine-4-carboxylic acid] is over 10000 nM; for `N[C@@H]1C(=O)N2C(C(=O)O)=C(CSc3cnn[nH]3)CS[C@H]12` [CAS_37539-03-0] it is 360 nM.
